“Also recorded” adds a separate entry of the source.
What was measured:
[1] = test system: lysophospholipids from LIPC-digested human LDL; experiment: Extraction of lysophospholipids from LIPC-digested LDL by cyclodextrins, read out as complement C3 fixation; format: biochemical; conditions: for complement activation after cyclodextrin extraction of LIPC-digested LDL: 20 mM cyclodextrin
Method: Immobilized LDL was digested with LIPC, then 20 mM of different cyclodextrins (A), or 0-20 mM HPαCD (B), or 20 mM HPαCD (C), or 2 mM of HPαCD in combination with 0.5 mg/ml of native LDL (D) are used for 20 hours extraction (A, B, D), or 0-20 hours extraction (C). Complement activation with diluted native human serum was then performed. MβCD—methyl-β-cyclodextrin; HPβCD—hydroxypropyl-β-cyclodextrin.
(§1) 96-well NUNC MaxiSorp plates were coated with 40 μl of human LDL, VLDL, or NaOH-hydrolyzed LDL, all at 200 μg/ml in PBS, at 4° C. overnight then 37° C. for 1 hour, and remaining binding sites were blocked with 3% BSA in PBS at 37° C. for 1 hour. The wells were washed and then incubated with 40 μl of LIPC or CEase in PBS containing 2% BSA at 37° C. for 1 or 2 hours as indicated in Results section, and the degradation reaction was stopped by washing the plate with PBS. For complement system activation, the resulted plate was incubated with 20 μl of 1:1 diluted human sera at 21° C. for 30 minutes. The diluent for serum dilution was PBS containing calcium and magnesium, and human sera that were utilized in our study were native serum, C1q-depleted serum, factor B-depleted serum, native serum with addition of 10 mM of MgCl2 and 20 mM EGTA (Mg-EGTA), and native serum with addition of 10 mM EDTA.
(§2) After thorough washing of the plate, C3 fixation and final membrane attack complex formation on the plate were determined with anti-human C3d antibody and anti-human C5b-9 antibody, in combination with HRP-conjugated secondary antibody, respectively. The monoclonal anti-human C3d antibody is reactive to all C3d-containing fragments of C3, but not with C3 itself, so it detects C3 fixation on the plate and not C3 absorption. The final peroxidase activity was monitored at 450 nm with 3,3′,5,5′-tetramethyl-benzidine and hydrogen peroxide as substrates after 10 or 15 minutes reaction at room temperature.
We tested several cyclodextrins for the ability to extract lysophospholipids from LIPC-digested human LDL. Since lysophospholipid level in lipoprotein is directly related to complement C3 fixation, we use C3 fixation as an indicative parameter for levels of lysophospholipids in lipoprotein. […] We also tested HPαCD upon shuttling of lysophospholipids between LIPC-digested LDL and native LDL, a biological feature of lipid transport (FIG. 4D).

ARPE-19 cells = format: cell-based
Method: (A, B) 40-50% confluent ARPE-19 cells in 96-well plate were cultured with serum-free medium for 24 hours, then incubated with 0.1 ml of serum-free medium containing 0-100 μM 1-Palmitoyl-sn-glycero-3-phosphocholine (LPC) for 22 hours. Cell morphology of control cells and 100 μM LPC treated cells was observed under a microscope, as shown in (B). The cells were then incubated with 0.15 ml of serum-free medium containing 0.5 mg/ml MTT at 37° C. for 2 hours. Formation of formazan is detected at 540 nm with 0.1 ml of DMSO as solvent (A). (C) As performed in (A), but with 100 μM LPC pre-incubated for 1 hour with 0-20 mM HPαCD, significant protection of HPαCD on ARPE-19 cells was observed when used at 0.5 mM or greater in medium (marked with *).
Human retinal pigment epithelial cell line, ARPE-19, was purchased from ATCC (Manassas, Va.). The cells were cultured in Dulbecco's modified Eagle's medium supplemented with 10% of heat-inactivated fetal bovine serum (FBS), 100 IU/ml of penicillin, and […] of streptomycin (all cell culture products from Invitrogen-Gibco, Rockville, Md.). Cells were maintained at 37° C. in a 5% CO2 incubator with medium change every 3-4 days. […]
Cell viability was determined with the colorimetric MTT metabolic activity assay. […] After removal of cell culture medium, formation of formazan from MTT reduction was detected at 540 nm with 0.1 ml of DMSO as solvent.

[2] = test system: rabbit cornea after alkali burn; experiment: Rabbit corneal neovascularization by alkali burn; format: in vivo
Method: Alkali burn on central cornea was performed with 6 mm filter paper disc wetted with 8 μl of 1M NaOH. Cornea were then extensively washed with PBS, followed by treatment with control formula (left eye) and cyclodextrin formula (right eye) as described in Materials and Methods. The bottom two pictures are fluorescein angiograms showing the leaking new vessels in the cornea. White arrows in pictures show corneal neovascularization.
3 New Zealand white rabbits, aged 4-5 months and weighing 1.8-2.6 kg, were obtained from Charles River Laboratories (Wilmington, Mass.) and acclimatized for several weeks before the experiments started. All of the rabbits were anesthetized using ketamine (42 mg/kg) and xylazine (7 mg/kg) intramuscularly. 0.5% proparacaine hydrochloride (Akorn, Inc. Lake Forest, Ill.) was applied topically. Alkali burn on central cornea of both eyes was performed with 6 mm round disc of Whatman No. 1 filter paper wetted with […] of 1M NaOH for exactly 1 minute, filter paper was then removed and the cornea was extensively irrigated with 200 ml of PBS for 10 minutes. Left eye and right eye were then treated with control formula (6 mg/ml of POPC liposome in PBS) and cyclodextrin formula (50 mM HPαCD and 16.7 mM HPβCD in control formula), respectively. […]

[3] = test system: classical pathway of complement system; experiment: Complement activation (C3 fixation) by LIPC- or CEase-digested immobilized LDL with human serum; format: biochemical
Method: 96-well MaxiSorp plates were coated with fresh human LDL (A, D, E), VLDL (B), or NaOH-hydrolyzed LDL (C). After blocking with BSA, the plates, except (C), were digested with LIPC. To test complement activation, the plates were incubated with diluted native human serum (N), C1q-depleted human serum (Cd), factor B-depleted human serum (Bd), or human serum containing Mg-EGTA (ME). C3 fixation on the plate was detected with a monoclonal anti-C3d antibody followed by HRP-conjugated secondary antibody. Specific conditions for LIPC digestion and HRP-catalyzed color development of each experiment were outlined as following: LIPC was used at 10 μg/ml for (A, B, E), 0-50 μg/ml for (D), and no LIPC for (C). LIPC degradation was 1 hour for (D), 2 hours for (A, B), and 0-2 hours for (E). Color development was 15 minutes for (A, B, C, E) and 10 minutes for (D). For NaOH hydrolysis of LDL, 1.35 mg/ml of LDL was incubated in 0.15M NaOH solution at 25° C. for up to 60 minutes. Aliquots were taken out and neutralized with 0.15M HCl at 1, 10, 20, 60 minutes.
LIPC and CEase, both having 8 μUnits of phospholipase A1 activity but having 3 μUnits and 8125 μUnits of triglyceride hydrolase activity respectively, were used for 2 hours digestion of immobilized LDL. Complement activation with diluted native human serum is then determined as in FIG. 1. The HRP-catalyzed color development was 15 minutes.
Human LDL coating and 1 hour (C) or 2 hours (A, B) LIPC digestion was performed as described in FIG. 1. (A) For complement activation, 0-50 μM of phosphocholine was added into diluted native human serum. […]
as §2, with “The monoclonal anti-human C3d antibody is reactive to all C3d-containing fragments of C3, but not with C3 itself, so it detects C3 fixation on the plate and not C3 absorption.” left out

C5b-9 = experiment: Terminal complement complex (C5b-9) formation by LIPC-digested LDL; format: biochemical; conditions: human serum with additional CRP
Method: Immobilized LDL was digested by LIPC and then incubated with human serum with or without additional CRP. C3 fixation (A) and C5b-9 formation (B) was determined by specific primary and HRP-conjugated secondary antibodies.
as §1, with “The diluent for serum dilution was PBS containing calcium and magnesium, and human sera that were utilized in our study were native serum, C1q-depleted serum, factor B-depleted serum, native serum with addition of 10 mM of MgCl2 and 20 mM EGTA (Mg-EGTA), and native serum with addition of 10 mM EDTA.” left out
as §2, with “The monoclonal anti-human C3d antibody is reactive to all C3d-containing fragments of C3, but not with C3 itself, so it detects C3 fixation on the plate and not C3 absorption.” left out

## 2-hydroxypropyl-α-cyclodextrin [HPαCD]
[1]; 0-20 mM HPαCD for 20 hours, 20 mM HPαCD for 0-20 hours
  extraction of complement-activating lysophospholipids, dose and time dependence: dose- and time-dependent
[1]; 2 mM HPαCD alone, 20 hours extraction
  extraction of lysophospholipids, HPαCD alone at low level: cannot extract much lysophospholipids
[1]; 2 mM HPαCD with 0.5 mg/ml native LDL, 20 hours extraction
  extraction of lysophospholipids, HPαCD in combination with native LDL: extract the most lysophospholipids
[1]; 20 hours extraction
  complement activation after cyclodextrin extraction of LIPC-digested LDL: significantly less complement activation; also recorded: Significant extraction of lysophospholipids
ARPE-19 cells; 100 μM LPC pre-incubated 1 hour with 0-20 mM HPαCD
  HPαCD concentration giving significant protection of ARPE-19 cells: ≥ 0.5 mM
[2]; FIG. 7 representative result
  neovascularization area and vessel length: reduced dramatically
[2]; topical after alkali burn, right eye vs control formula left eye, three rabbits
  inhibition of corneal neovascularization: dramatic effect of HPαCD extraction on inhibition of corneal neovascularization

## 2-hydroxypropyl-β-cyclodextrin [reference compound]
[1]; 20 hours extraction
  complement activation after cyclodextrin extraction of LIPC-digested LDL: much weaker effects

## CCCCCCCCCCCCCCCC(=O)OC[C@@H](O)COP(=O)([O-])OCC[N+](C)(C)C [1-palmitoyl-sn-glycero-3-phosphocholine, reference compound]
ARPE-19 cells; serum-free medium, 22 hours, 0-100 μM tested
  concentration inducing ARPE-19 cell death: ≥ 20 μM

## C[N+](C)(C)CCOP(=O)([O-])O [phosphocholine, reference compound]
[3]; 0-50 μM phosphocholine in diluted native human serum
  complement activation by LIPC-digested LDL, phosphocholine added into serum: significantly decreases complement activation

## OC[C@H]1O[C@@H]2O[C@H]3[C@H](O)[C@@H](O)[C@@H](O[C@H]4[C@H](O)[C@@H](O)[C@@H](O[C@H]5[C@H](O)[C@@H](O)[C@@H](O[C@H]6[C@H](O)[C@@H](O)[C@@H](O[C@H]7[C@H](O)[C@@H](O)[C@@H](O[C@H]1[C@H](O)[C@H]2O)O[C@@H]7CO)O[C@@H]6CO)O[C@@H]5CO)O[C@@H]4CO)O[C@@H]3CO [α-cyclodextrin, reference compound]
[1]; 20 hours extraction
  complement activation after cyclodextrin extraction of LIPC-digested LDL: much weaker effects

## OC[C@H]1O[C@@H]2O[C@H]3[C@H](O)[C@@H](O)[C@@H](O[C@H]4[C@H](O)[C@@H](O)[C@@H](O[C@H]5[C@H](O)[C@@H](O)[C@@H](O[C@H]6[C@H](O)[C@@H](O)[C@@H](O[C@H]7[C@H](O)[C@@H](O)[C@@H](O[C@H]8[C@H](O)[C@@H](O)[C@@H](O[C@H]1[C@H](O)[C@H]2O)O[C@@H]8CO)O[C@@H]7CO)O[C@@H]6CO)O[C@@H]5CO)O[C@@H]4CO)O[C@@H]3CO [β-cyclodextrin, reference compound]
[1]; 20 hours extraction
  complement activation after cyclodextrin extraction of LIPC-digested LDL: much weaker effects

## methyl-β-cyclodextrin [reference compound]
[1]; 20 hours extraction
  complement activation after cyclodextrin extraction of LIPC-digested LDL: much weaker effects

B1: CRP: purified human CRP, binding protein of lysophosphatidylcholine (protein, UniProt P02741 19-224, looked up)
C-reactive protein: QTDMSRKAFVFPKESDTSYVSLKAPLTKPLKAFTVCLHFYTELSSTRGYSIFSYATKRQDNEILIFWSKDIGYSFTVGGSEILFEVPEVTVAPVHICTSWESASGIVEFWVDGKPRVRKSLKKGYTVGAEASIILGQEQDSFGGNFEGSQSLVGDIGNVNMWDFVLSPDEINTIYLGGPFSPNVLNWRALKYEVQGEVFTKPQLWP
[3]; native human serum supplemented with purified human CRP
  C3 fixation by LIPC-digested LDL with additional CRP: dose-dependently enhances its activity on complement activation; also recorded: enhances C3 fixation
C5b-9
  terminal complement complex formation with additional CRP: blocks the terminal complement complex formation

— patent US20160151410A1, “CLEARANCE OF BIOACTIVE LIPIDS FROM MEMBRANE STRUCTURES BY CYCLODEXTRINS” (The Trustees of Columbia University in the City of New York, priority 2013, published 2016)
